Results taken from article PMC11671014 (PLOS Pathogens, 2024).
Values joined by “and” are separate entries in the source; they are usually repeats but may differ in a detail not shown here. Identical values can stand only once. Like-named read-outs stand apart in the source and are kept apart here.

How the values were obtained:
[1] = system: CAM 3.II Rev parasites, trophozoite and schizont stages; assay: Pulsed exposure viability of trophozoite and schizont stages, flow cytometry of Syto-61-labelled parasites; assay type: cell-based, Plasmodium falciparum; conditions: for LD50 Troph: trophozoite
[2] = system: P. falciparum Brazilian field isolates; assay: Ex vivo drug susceptibility of Brazilian field isolates (P. falciparum); assay type: cell-based; conditions: Plasmodium falciparum
Description: Compounds were assayed on ten P. vivax isolates and seven P. falciparum Brazilian isolates collected from mono-infected patients, who had signed a written informed consent form to participate in the study, using previously described methods. The initial parasitemia ranged from 2,100–8,000 parasites/μL for P. vivax and 3,500–9,000 parasites/μL for P. falciparum isolates. Artesunate and chloroquine were assayed in parallel as standard compounds. The analyses included only the isolates that were incubated for ≥ 40 h with the compounds.

Caco-2 permeability = assay type: in vitro ADME; conditions: human
Description: Permeability studies were performed as described previously. In brief, Caco-2 cells were cultured for 21–25 days to differentiate them into enterocyte-like cells. The transepithelial electrical resistance (TEER) was measured to ensure tight junction formation and cells with TEER value more than 250 ohms.cm^2 were used in the study. On the day of the transport study, cells were washed with warm HBSS buffer and equilibrated with buffer for 60 min. ML471 was added at a concentration of 5 μM (containing 50 μM Lucifer Yellow) into a 24 Transwell cell plate (apical 210 μL and basal 1000 μL) and buffer was added in the receiver side. Cells were incubated at 37°C for 60 min and 120 μL aliquots were taken from the receiver side after 30 and 60 min. Samples were mixed with 100 nM carbutamide in acetonitrile (ACN) containing 0.1% formic acid (internal standard). Samples were centrifuged at 2,056 x g for 10 min and the supernatant was collected and analyzed for quantification of the test article by LC-MS [49].

[3] = system: stage V NF54 strain male and female gametocytes; assay: P. falciparum Dual Gamete Formation Assay (PfDGFA); assay type: cell-based; conditions: Plasmodium falciparum, 48 h
Description: Inhibition of the viability of stage V male and female gametocytes was assessed in the P. falciparum Dual Gamete Formation Assay (PfDGFA) as described previously. Briefly, mature stage V NF54 strain gametocytes were incubated with test molecules for 48 h in 384-well plates at 37°C. Gametogenesis was then triggered by cooling the plates to room temperature and addition of xanthurenic acid-containing activating medium (also containing anti-Pfs25 antibody (Mab 4B7) conjugated to a Cy3 fluorophore). Twenty minutes after activation, exflagellation was imaged in all wells of the plate using a x4 objective and automated brightfield microscopy. The plate was then incubated at 20°C for a further 24 h in the dark. Thereafter, female gamete formation was quantified by automated identification of Pfs25-positive cells. Automated counts were transformed to percent inhibition values with reference to positive 100 nM Cabamiquine (DDD498) and negative (DMSO) controls. Data represent the means of multiple independent biological repeats.

[4] = Blood exposure in the P. falciparum infected SCID mouse model; assay type: in vivo, NODscidIL2Rγ^null mice engrafted with human RBCs; conditions: for Cmax / Tmax / AUC(0-t): female, mouse, whole blood, po
Description: The model using P. falciparum Pf3D7^0087/N9 in NODscidIL2Rγ^null mice engrafted with human RBCs was adapted from a previously described procedure. Female NODscidIL2Rγ^null mice were purchased from Charles River (Germany). Briefly, two engrafted mice/dosing group (females, 20–22 g) were infected intravenously with 2 x 10^7 P. falciparum (Pf3D7^0087/N9) on day 0. The antimalarial efficacy was assessed following administration (p.o.) of 100 or 200 mg/kg of compound or of 4 daily doses of 50 mg/kg, initiated on day 3 post-infection. The effect on blood parasitemia was measured by microscopic analysis of Giemsa-stained blood smears (on days 3, 4, 5, 6 and 7 post-infection). Mice were euthanized on day 7. Animal were monitored for symptoms of acute toxicity, including decreased activity, sunken flanks, ataxia and blood in faeces.
On day 3, blood samples (20 μL) were obtained at time points up to 24 h after the first administration. Protein was precipitated with acetonitrile and the remaining compound was assessed by LC-MS/MS in the selected reaction monitoring mode using HESI ionization in positive ion mode.

Solubility = assay type: physicochemical
[5] = 1 x 100 mg/kg p.o., mice M1, M2
[6] = 1 x 200 mg/kg p.o., mice M3, M4
[7] = 4 days x 50 mg/kg p.o., after first dose, blood
[8] = 4 days x 50 mg/kg p.o., mice M1, M2

Nc1ncnc2c1c(OC(F)F)nn2[C@@H]1O[C@H](COS(N)(=O)=O)[C@@H](O)[C@H]1O [ML901]
LD50 Schizont ([1]; 30 h continuous): 8.5 ± 0.7 nM | LD50 Schizont ([1]; drug pulse time 3 h): 88 ± 1 nM | LD50 Schizont ([1]; drug pulse time 6 h): 36 ± 6 nM | LD50 Schizont ([1]; drug pulse time 9 h): 21 ± 12 nM | fold lower sensitivity of trophozoite stage compared with schizont stage ([1]; short pulses of 3 h or 6 h): 10 to 20 fold | LD50 Troph ([1]; 48 h continuous): 3.9 ± 0.8 nM | LD50 Troph ([1]; drug pulse time 3 h): 1700 ± 460 nM | LD50 Troph ([1]; drug pulse time 6 h): 680 ± 48 nM | LD50 Troph ([1]; drug pulse time 9 h): 290 ± 150 nM | LD50 Troph ([1]; drug pulse time 24 h): 4.0 ± 0.0 nM

CC(C)c1nn([C@@H]2O[C@H](COS(N)(=O)=O)[C@@H](O)[C@H]2O)c2ncnc(N)c12 [ML471, ((2R,3S,4R,5R)-5-(4-amino-3-isopropyl-1H-pyrazolo[3,4-d]pyrimidin-1-yl)-3,4-dihydroxytetrahydrofuran-2-yl)methyl sulfamate]
EC50 ([2]; range over n = 7 isolates, read-out: EC50 range, P. falciparum Brazilian field isolates): 0.0025 to 0.0049 µM | EC50 ([2]; read-out: Median EC50, P. falciparum Brazilian field isolates): 0.0042 µM | Papp A→B at 60 min, 5 μM (Caco-2 permeability; 5 μM, 60 min, second figure of the cell, read-out: Caco2 Papp (A to B)): 1.7 nm/s | Papp B→A at 60 min, 5 μM (Caco-2 permeability; 5 μM, 60 min, third figure of the cell, read-out: Caco2 Papp (B to A)): 13 nm/s | efflux ratio at 60 min, 5 μM (Caco-2 permeability; equals B to A / A to B, read-out: Caco2, first figure of the cell, not given): 7.6 | IC50 ([3]; female, read-out: Dual gamete formation assay (female) IC50(48h)): 0.26 µM | IC50 ([3]; male, read-out: Dual gamete formation assay (male) IC50(48h)): 0.049 µM | AUC0-120h/dose (mean) ([4]; 1 x 100 mg/kg p.o., blood): 2,500 (h*ng/mL)/(mg/kg) | Cmax/dose (mean) ([4]; 1 x 100 mg/kg p.o., blood): 33.5 (ng/mL)/(mg/kg) | AUC0-120h (individual mice) [4, 5]: 260,000 h*ng/mL | AUC0-120h/dose (individual mice) [4, 5]: 2,390 (h*ng/mL)/(mg/kg) and 2,600 (h*ng/mL)/(mg/kg) | Cmax (individual mice) [4, 5]: 3,600 ng/mL | Cmax/dose (individual mice) [4, 5]: 31 (ng/mL)/(mg/kg) and 36 (ng/mL)/(mg/kg) | AUC0-120h/dose (mean) ([4]; 1 x 200 mg/kg p.o., blood): 1,070 (h*ng/mL)/(mg/kg) | Cmax/dose (mean) ([4]; 1 x 200 mg/kg p.o., blood): 18.8 (ng/mL)/(mg/kg) | AUC0-120h (individual mice) [4, 6]: 259,000 h*ng/mL | AUC0-120h/dose (individual mice) [4, 6]: 855 (h*ng/mL)/(mg/kg) and 1,290 (h*ng/mL)/(mg/kg) | Cmax (individual mice) [4, 6]: 4,180 ng/mL | Cmax/dose (individual mice) [4, 6]: 16.7 (ng/mL)/(mg/kg) and 20.9 (ng/mL)/(mg/kg) | AUC0-24h/dose (mean) [4, 7]: 422 (h*ng/mL)/(mg/kg) | Cmax/dose (mean) [4, 7]: 19.3 (ng/mL)/(mg/kg) | AUC0-24h (individual mice) [4, 8]: 22,572 h*ng/mL | AUC0-24h/dose (individual mice) [4, 8]: 451 (h*ng/mL)/(mg/kg) and 392 (h*ng/mL)/(mg/kg) | Cmax (individual mice) [4, 8]: 1,040 ng/mL | Cmax/dose (individual mice) [4, 8]: 17.8 (ng/mL)/(mg/kg) and 20.8 (ng/mL)/(mg/kg) | Tmax (individual mice) [4, 8]: 24 h | Cmax ([4]; NODscidIL2Rγ^null, 50 mg/kg, 4 days x 50 mg/kg p.o., after first dose, blood, read-out: Cmax (mean)): 0.964 µg/mL | Tmax ([4]; NODscidIL2Rγ^null, 50 mg/kg, 4 days x 50 mg/kg p.o., after first dose, blood, read-out: Tmax (mean)): 15 h | AUC(0-t) ([4]; NODscidIL2Rγ^null, 50 mg/kg, 4 days x 50 mg/kg p.o., mice M1, M2, read-out: AUC0-24h (individual mice)): 19.6 µg·h/mL | Cmax ([4]; NODscidIL2Rγ^null, 50 mg/kg, 4 days x 50 mg/kg p.o., mice M1, M2, read-out: Cmax (individual mice)): 0.888 µg/mL | Cmax ([4]; NODscidIL2Rγ^null, 100 mg/kg, 1 x 100 mg/kg p.o., blood, read-out: Cmax (mean)): 3.35 µg/mL | Tmax ([4]; NODscidIL2Rγ^null, 100 mg/kg, 1 x 100 mg/kg p.o., blood, read-out: Tmax (mean)): 5 h | AUC(0-t) ([4]; NODscidIL2Rγ^null, 100 mg/kg, 1 x 100 mg/kg p.o., mice M1, M2, read-out: AUC0-120h (individual mice)): 239 µg·h/mL | Cmax ([4]; NODscidIL2Rγ^null, 100 mg/kg, 1 x 100 mg/kg p.o., mice M1, M2, read-out: Cmax (individual mice)): 3.1 µg/mL | Tmax ([4]; NODscidIL2Rγ^null, 100 mg/kg, 1 x 100 mg/kg p.o., mice M1, M2, read-out: Tmax (individual mice)): 4 h | Cmax ([4]; NODscidIL2Rγ^null, 200 mg/kg, 1 x 200 mg/kg p.o., blood, read-out: Cmax (mean)): 3.76 µg/mL | Tmax ([4]; NODscidIL2Rγ^null, 200 mg/kg, 1 x 200 mg/kg p.o., blood, read-out: Tmax (mean)): 4 h | AUC(0-t) ([4]; NODscidIL2Rγ^null, 200 mg/kg, 1 x 200 mg/kg p.o., mice M3, M4, read-out: AUC0-120h (individual mice)): 171 µg·h/mL | Cmax ([4]; NODscidIL2Rγ^null, 200 mg/kg, 1 x 200 mg/kg p.o., mice M3, M4, read-out: Cmax (individual mice)): 3.34 µg/mL | Tmax ([4]; NODscidIL2Rγ^null, 200 mg/kg, 1 x 200 mg/kg p.o., mice M3, M4, read-out: Tmax (individual mice)): 4 h | AUC(0-t) ([4]; NODscidIL2Rγnull engrafted with human RBCs, 50 mg/kg, 4 x 50 mg/kg p.o., at 24 h after the first dose, read-out: AUC0-24h): 54 µM·h | AUC(0-t) ([4]; NODscidIL2Rγnull engrafted with human RBCs, 50 mg/kg, 4 days x 50 mg/kg p.o., after first dose, blood, read-out: AUC0-24h (mean)): 21.1 µg·h/mL | AUC(0-t) ([4]; NODscidIL2Rγnull engrafted with human RBCs, 100 mg/kg, 1 x 100 mg/kg p.o., blood, read-out: AUC0-120h (mean)): 250 µg·h/mL | AUC(0-t) ([4]; NODscidIL2Rγnull engrafted with human RBCs, 100 mg/kg, single dose 100 mg/kg p.o., read-out: AUC0-120h): 640 µM·h | AUC(0-t) ([4]; NODscidIL2Rγnull engrafted with human RBCs, 200 mg/kg, 1 x 200 mg/kg p.o., blood, read-out: AUC0-120h (mean)): 215 µg·h/mL | AUC(0-t) ([4]; NODscidIL2Rγnull engrafted with human RBCs, 200 mg/kg, single dose 200 mg/kg p.o., read-out: AUC0-120h): 550 µM·h | solubility (Solubility): > 100 µM
